The subject of one series is p-ERM. The series is described as follows: IP with anti-p-ERM antibody followed by RT-PCR in transfected H1792 cells. In kind it is binding, human. As to conditions: H1792 cells transfected with the oligonucleotide. From the text: We next wanted to determine the site critical for piR-L-163's binding toP-ERM. We first analyzed the piR-L-163 sequence and identified a candidate motif “UUNNUUUNNUU” (SEQ ID NO:495) with potentially critical for the binding (FIG. 5a). We then generated 5 mutant forms of piR-L-163 named as M1-M5 (FIG. 5b and Table 3) to test their potential impact on the p-ERM binding. For this experiment, we used H1792 cells because these cells expressed extremely low level of endogenous piR-L-163 but considerable amount of p-ERM (FIG. 5c and FIG. 11a). H1792 cells were transfected with Scr (control), Ant-163, piR-L-163 (WT), or Mutant 1 (M1) to Mutant 5 (M5) RNA oligonucletides, respectively. An anti-p-ERM antibody was used for IP followed by RT-PCR using primers specific for Scr, Ant-163, piR-L-163, or M1-M5 (Table 6) to detect the corresponding oligonucleotides.
To amplify sncRNAs, we added an adaptor to the 3′ end, a process including adaptor ligation, RT and PCR (de Vanssay, A. et al. Paramutation in Drosophila linked to emergence of a piRNA-producing locus. Nature 490, 112-115 (2012); Li, Z. et al. Characterization of viral and human RNAs smaller than canonical MicroRNAs. J Virol. 83, 12751-12758 (2009)). For adaptor ligation, the adaptor /5′rapp/CTGTAGGCACCATCAAT/3′ddc/ (SEQ ID NO:499) with both 5′ and 3′ modification was used. Briefly, mixed 1 μl (10 pmol, ˜55 ng) of RNA 3′ adaptor and 4.4 μl (˜100 ng) of purified sncRNAs in a 1.5 ml EP tube; Incubated at 72° C. for 2 min, then placed on ice immediately and kept it on ice for at least 1 min; Added the following reagents (New England Biolabs) to the above tube: 0.8 μl 10×RNA ligase buffer, 1 μl RNase inhibitor, and 1 μl single strand RNA ligase; Mixed it well and incubated at 37° C. for 1 hr, then terminated the reaction at 65° C. for 15 min. For RT, SuperScript™ III First-Strand Synthesis System (Invitrogen) was used according to the manufacturer's instructions with gene specific primer (5′-[…]-3′) (SEQ ID NO:500). For PCR, a common reverse primer (5′-[…]-3′) (SEQ ID NO:501) and primers specific for individual sncRNAs (Table 6). Amplification conditions were denaturation at 95° C. for 30 s (5 min for the first cycle), annealing at 60° C. for 20 s and extension at 72° C. for 20 s (2 min for the last cycle) for 25 cycles.
For IP using anti-human Moesin or p-ERM antibodies, anti-Moesin (Clone Q480, Catalog No. 3150, Cell Signaling) or anti-p-ERM (Clone 41A3, Catalog No. 3149, Cell Signaling) antibodies were used and a rabbit IgG was used as a control. Briefly, Saturated protein G agarose beads (Sigma-Aldrich) with rabbit IgG, anti-Moesin or anti-p-ERM antibodies, respectively (1 μg antibody was used for 4 μl agarose beads) at 4° C. for 3 hrs, centrifuged at 2,200×g for 5 min, and discarded the upper aqueous phase; (2) Protein extracts prepared from cells using lysis buffer (20 mM Tris-cl, pH7.6, 150 mM NaCl, 20 mM KCl, 1.5 mM MgCl2, 0.5% NP-40, 0.5 mM PMSF) were pre-cleared using protein G agarose at 4° C. for 2 hrs, centrifuged at 2,200×g for 5 min, and transferred the upper aqueous phase to above tubes with agarose beads saturated with antibodies, respectively; Kept the tubes rotating overnight at 4° C., centrifuged at 2,200×g for 5 min, and washed the beads with lysis buffer twice; Extracted total RNAs from beads using Trizol Reagent (Life Technologies); Amplification of piR-L-163 or its mutants was performed according to the steps described in the “RT-PCR” section.

Another series relates to HBE4 cells. The series is described as follows: Cell cycle analysis by flow cytometry, HBE4 cells synchronized at S phase. The class given is cell-based, human. As to conditions: measured every 2 hrs, vs Scr. As for the experimental part: We then wanted to determine whether piR-L-163 (SEQ ID NO:282) plays a functional role in human bronchial epithelial cells. We treated HBE4 cells as well as primary normal human bronchial epithelial (NHBE) cells with piR-L-163 complementary DNA oligonucleotides (Ant-163) (SEQ ID NO:496) or RNA oligonucleotides (Ant-163R) (SEQ ID NO:497) in the experiment. […] Cell cycle distributions were measured every 2 hrs.
Cell cycle distribution was analyzed by Flow Cytometry (Becton-Dickinson). Cells were synchronized in growth factor-free Keratinocyte-SFM with 2 mM Thymidine (Catalog No. T1895, Sigma-Aldrich) for 24 hrs. Transfection is performed using Lipofectamine™ RNAiMAX (Invitrogen) according to its manual, and the final concentration of annealed oligo RNAs is 400 nM. Four hour after transfection, culture medium was replaced by complete Keratinocyte-SFM supplemented with L-Glutamine, prequalified human recombinant EGF 1-53 and BPE. Cells were harvested at different time points, washed in phosphate-buffer saline (PBS), fixed with ice-cold 70% ethanol, and strained in PI/RNase solution (BD Pharmigen). The samples were analyzed on a FACScan flow cytometer in combination with BD lysis software (Becton-Dickinson).
In general terms: In flow cytometry, cells or beads pass a laser one at a time.

A further series deals with H1792 cells. As to the kind of experiment: Trans-well invasion assay. As to conditions: H1792, vs control RNA oligonucleotides. In kind it is cell-based, human. From the text: We then tested the potential impact of piR-L-163 in cell migration and invasion, two of the properties involving ERM's biological functions (Fehon, R. G., Mclatchey, A. I. & Bretscher, A. Organizing the cell cortex: the role of ERM proteins. Nat Rev Mol Cell Biol. 11, 276-287 (2010); Hunter, K. W. Ezrin, a key component in tumor metastasis. Trends Mol. Med. 10, 201-204 (2004); Luo, Y. et al. Recognition of CD146 as an ERM-binding protein offers novel mechanisms for melanoma cell migration. Oncogene 31, 306-321 (2013); Clucas, J. & Valderrama, F. ERM proteins in cancer progression. J Cell Sci. 128, 1253 (2015)).
Briefly, 24 hrs after transfection, 6×10^4 cells were placed in the upper chamber of Matrigel Invasion Chambers (BD Bioscience) with growth factor-free Keratinocyte-SFM and the bottom chamber were exposed to Keratinocyte-SFM medium supplemented with L-Glutamine, prequalified human recombinant EGF 1-53 and BPE. Invading cells were evaluated after 12 hrs according to the manufacturer's instruction. The numbers of invading cells were adjusted 15% downwards for Ant-163 treated cells or 15% upwards for piR-L-163 treated cells to compensate the differences for the proliferation rates.

“Also recorded” adds a separate entry of the source.

Consider 2 substances from patent US10889812B2, “Short non-coding protein regulatory RNAs (sprRNAs) and methods of use” (University of Maryland, Baltimore, priority 2014, dated 2021).

Consider “Ant-163: DNA sequence antisense to piR-L-163, SEQ ID NO:496, 5′-GGTCAGAGAATCAAAGTAACATCATGATAT-3′ (DNA, backbone and methylation of C not given here)”, for which, in the series on p-ERM, the “oligonucleotide detected by RT-PCR in anti-p-ERM IP products (binding to p-ERM)” value is recorded as “no RT-PCR band could be detected”. The cell cycle distribution entry with HBE4 cells is “accelerated DNA synthesis and G2-M accumulation”. Further, in the series on H1792 cells, the invasion capability entry is on record as “no impact”.

Regarding “piR-L-163: sprRNA, SEQ ID NO:282; piRNA-L aligned to intron 10 of LAMC2; AUAUCAUGAUGUUACUUUGAUUCUCUGACC with 3′ 2′-O-methylation (listed as RNA, chemistry not fully specified; listed as Homo sapiens)”, the “oligonucleotide detected by RT-PCR in anti-p-ERM IP products (binding to p-ERM)” value in the series on p-ERM is on record as “strong RT-PCR band was detected”. The invasion capability entry in the series with H1792 cells was “significantly decreased invasion capability; also recorded: significantly reduced the number of invading cells”.
